Experimental data as given in paper PMC10208956, “Microbial peptides activate tumour-infiltrating lymphocytes in glioblastoma” (Nature, 2023).

Experiments:
[1] = test system: bulk TILs (patient 1635WI); test: Cytokine and chemokine secretion of bulk TILs stimulated with IPdBPs; format: cell-based, human; set-up: key to CD40 Ligand / Flt-3 Ligand / GM-CSF / Granzyme B / IFN-α / IFN-γ / IL-1rα / IL-1α / IL-1β / IL-2 / IL-3 / IL-4 / IL-5 / IL-6 / IL-7 / IL-10 / IL-12p70 / IL-13 / IL-15 / IL-17A / IL-33 / TNF-α / RANTES: pg/mL, negative-control amount subtracted; CXCL2/GROβ / CXCL10/IP-10 / CCL2/MCP-1 / CCL3/MIP-1α / CCL4/MIP-1β: unit not given beside the values; settings: secretion by bulk TILs after peptide stimulation; sheet 1e
From the text: Fig. 1 Elution of HLA class II-presented bacterial peptides from 19 glioblastomas and the stimulatory effect of IPdBPs on bulk TILs. a, Schematic of the immunopeptidome analyses of glioblastoma tissue, from which eluted peptides were annotated using the UniProt bacteria database (1). TILs or peripheral memory T cells were stimulated with IPdBPs (2 and 3). LC–MS, liquid chromatography–mass spectrometry; PBMC, peripheral blood mononuclear cell. The images in panel a were created using BioRender (https://biorender.com). b, Number of unique IPdBPs in patients with glioblastoma (n = 19) (data from patient 1635WI contains both primary and recurrent tumours together), with 344 unique IPdBPs identified (left). These peptides originated from 255 and 199 unique proteins and bacteria, respectively (3 technical replicates). […] As a control, peptidome data were also annotated using human protein database to identify eluted self-peptides. As shown, most of HLA class II-bound peptides are self-(human) peptides. IPdBPs of primary (bottom left, n = 18) and recurrent (bottom right, n = 23) tumours were separately annotated to their source bacteria at the phylum level. d, Bulk TILs (patient 1635WI) were stimulated with IPdBPs (See Supplementary Table 8), each in five replicate wells, and proliferation was measured after 5 days via ^3H-thymidine incorporation. […] The data are expressed as the mean value of all wells ± s.e.m. SIN3A* peptide was used as a positive control as TILs recognize this tumour antigen. T cells with APCs without any stimuli were used as a negative control. e, Heatmap of cytokine and chemokine secretion of TILs stimulated with three IPdBPs, which weakly stimulated proliferation. The secretion of each cytokine and chemokine was calculated by subtracting the corresponding cytokine and chemokine amount (pg ml^−1) of the negative control. TILs with APCs without any stimuli were used as a negative control. Also see Extended Data Fig. 1. Source data
(§1) Supernatants from each experiment were harvested a day before adding thymidine and frozen at −20 °C. Cytokines were measured using ELISA for human IFNγ ELISA MAX (BioLegend), human GM-CSF DuoSet ELISA (R&D Systems) and bead-based assays. A Synergy H1 hybrid multi-mode reader (Agilent) was used to measure the absorbance. The LEGENDplex Multi-analyte Flow Assay kit (BioLegend) is a 13-plex human TH cytokine panel, which includes IFNγ, TNF, IL-2, IL-4, IL-5, IL-6, IL-9, IL-10, IL-13, IL-17A, IL-17F, IL-21 and IL-22. […] LSR Fortessa Flow Cytometer (BD Biosciences) was used to measure cytokines, and data were analysed using FlowJo (Tree Star). The Human XL Cytokine Luminex Performance Assay Fixed Panel (R&D Systems) contains 45 analytes covering a broad range of various chemokines and cytokines.

TCC2D3 = settings: 3 h
[2] = test system: sorted CD4+ PE and FITC TCRVβ+ TILs; test: Proliferation of TCRBV-sorted CD4+ TILs (without TCRBV6.1 and TCRBV6.2); format: cell-based, human; settings: sheet 6b
From the text: TILs expressing specific TCRBVs were isolated from bulk TILs using a panel of 22 fluorescently labelled TCRBV antibodies that detect 27 different TCRBVs. Twelve TCRBV antibodies were labelled with PE and 10 with FITC (Beckman Coulter). […] After another wash, cells were stained with CD4 (1:100) (APC anti-human CD4, eBioscience), CD8 (1:100) (Pacific blue anti-human CD8, BioLegend), TCRBV-PE (1:25) (Beckman Coulter) and TCRBV-FITC (1:25) (Beckman Coulter) antibodies (Supplementary Table 12) for 30 min. Finally, cells were sorted, seeded at 5 × 10^4 cells per well in T cell medium without h-IL-2 and rested for 1 day before stimulation with 2 × 10^5 cells per well of irradiated autologous PBMCs (45 Gy) and peptide (10 µM).
Two populations of CD4^+ PE-TCRVβ^+ and CD4^+ FITC-TCRVβ^+ were sorted and later mixed together. […] Specific amount of each cytokine/chemokine (pg/ml) was calculated by subtracting the cytokines in the negative control cultures (no peptide control). Source data

TCC75 = test: Cytokine/chemokine secretion of TCC75; format: cell-based, human; settings: 3 days; Extended Data Fig. 5e
TCC88 [3] = test: Cytokine and chemokine secretion of TCC88 after peptide stimulation; format: cell-based, human; settings: TCC88 supernatant after peptide stimulation; no peptide control subtracted; Fig. 3e
From the text: Fig. 3 Bacteria-derived and microbiota-derived peptides can stimulate TCC88 as well as the tumour antigen. a, Peptides with the highest predicted stimulatory scores were identified by searching various databases (see Methods). Numbers of unique 10-mer peptides within each database, synthesized peptides, TCC88 stimulatory peptides and the corresponding percentage of stimulatory peptides within each database are shown. […] Cytokine and chemokine secretion of TCC88 was examined and compared upon stimulation with these three different antigens. A specific amount of each cytokine and chemokine (pg ml^−1) was calculated by subtracting the cytokines in the negative control cultures (no peptide control). f, Cytotoxicity of TCC88 against the autologous tumour cell line after stimulation with 2 µM of SIN3A* and HGM3 (data represent the mean percentage of two replicate wells). E:T, effector to target. g, TCC88 was tested with HGM3 (10 µM) or SIN3A* (10 µM) peptides or both together (each 10 µM), and ^3H-thymidine incorporation was measured after 3 days (data represent the mean SI value of three replicate wells ± s.e.m.). Also see Extended Data Figs. 3 and 4. Source data
as §1

TCC88 [4] = settings: BLS-DRB3*02:02 as APCs; 3 days; SI ≥ 2 positive

Substance: AGPVVAAAVILKEDC [Peptidome.Bac 7]
- CCL2/MCP-1 [1]: 11.43
- CCL3/MIP-1α [1]: 1
- CCL4/MIP-1β [1]: 0
- CCL11/Eotaxin [1]: 0
- CCL19/MIP-3β [1]: 2.91
- CCL20/MIP-3α [1]: 3.7
- CD40 Ligand [1]: 994.39
- CXCL1/GROα [1]: 4.06
- CXCL2/GROβ [1]: 18.18
- CXCL8/IL-8 [1]: 0
- CXCL10/IP-10 [1]: 68.01
- Flt-3 Ligand [1]: 8.98
- GM-CSF [1]: 20.54
- Granzyme B [1]: 0
- IFN-α [1]: 0
- IFN-γ [1]: 18.67
- IL-1rα [1]: 382.82
- IL-1α [1]: 0
- IL-1β [1]: 0
- IL-2 [1]: 0
- IL-3 [1]: 10.62
- IL-4 [1]: 0
- IL-5 [1]: 0
- IL-6 [1]: 16.87
- IL-7 [1]: 1.18
- IL-10 [1]: 11.57
- IL-12p70 [1]: 2.8
- IL-13 [1]: 7.47
- IL-15 [1]: 0.56
- IL-17A [1]: 0
- IL-17E/IL-25 [1]: 0
- IL-33 [1]: 0
- RANTES [1]: 0
- TNF-α [1]: 9.2

Substance: Ac-AVVTQPDK-NH2 [Pep-bac9]
- SI: TCC2D3 (TCC2D3): 2.5

Substance: Ac-KEDMSVPLIKSIRK-NH2 [Pep-bac10]
- SI: TCC2D3 (TCC2D3): 2.2

Substance: Ac-SNGDLDAIVVARAGLA-NH2 [Pep-bac16]
- SI: TCC2D3 (TCC2D3): 2.2

Substance: Ac-VFDFNHSAIK-NH2 [HGM62]
- Proliferation (SI) of sorted CD4+ TILs ([2]; replicate 1): 1.423
- Proliferation (SI) of sorted CD4+ TILs ([2]; replicate 2): 1.043
- Proliferation (SI) of sorted CD4+ TILs ([2]; replicate 3): 2.568

Substance: Ac-VWEFNHSLHP-NH2 [HGM27]
- cytokine and chemokine profile of TCC75 (in words) (TCC75): secretes pro-inflammatory cytokines
- Proliferation (SI) of sorted CD4+ TILs ([2]; replicate 1): 2.099
- Proliferation (SI) of sorted CD4+ TILs ([2]; replicate 2): 2.919
- Proliferation (SI) of sorted CD4+ TILs ([2]; replicate 3): 2.416

Substance: LIVFNHNCLK [HB84, UniProt bacteria database peptide]
- CCL20/MIP-3α (TCC88 [3]): 8.75 pg/mL
- CD40 Ligand (TCC88 [3]): 1473.06 pg/mL
- CXCL1/GROα (TCC88 [3]): 73.57 pg/mL
- CXCL2/GROβ (TCC88 [3]): 49.19 pg/mL
- CXCL8/IL-8 (TCC88 [3]): 0 pg/mL
- CXCL10/IP-10 (TCC88 [3]): 104.46 pg/mL
- Flt-3 Ligand (TCC88 [3]): 100.29 pg/mL
- Fractalkine (TCC88 [3]): 347.74 pg/mL
- GM-CSF (TCC88 [3]): 5082.78 pg/mL
- Granzyme B (TCC88 [3]): 2479.01 pg/mL
- IFN-α (TCC88 [3]): 2.75 pg/mL
- IFN-γ (TCC88 [3]): 910.88 pg/mL
- IL-1rα (TCC88 [3]): 520.19 pg/mL
- IL-1α (TCC88 [3]): 12.29 pg/mL
- IL-1β (TCC88 [3]): 17.01 pg/mL
- IL-2 (TCC88 [3]): 167.02 pg/mL
- IL-3 (TCC88 [3]): 131.91 pg/mL
- IL-4 (TCC88 [3]): 71.31 pg/mL
- IL-5 (TCC88 [3]): 29.89 pg/mL
- IL-6 (TCC88 [3]): 102.19 pg/mL
- IL-7 (TCC88 [3]): 0.74 pg/mL
- IL-10 (TCC88 [3]): 2358.6 pg/mL
- IL-12p70 (TCC88 [3]): 19.71 pg/mL
- IL-13 (TCC88 [3]): 1338.92 pg/mL
- IL-15 (TCC88 [3]): 2.33 pg/mL
- IL-17A (TCC88 [3]): 1.97 pg/mL
- IL-17E/IL-25 (TCC88 [3]): 0 pg/mL
- IL-33 (TCC88 [3]): 15.02 pg/mL
- TNF-α (TCC88 [3]): 3267.52 pg/mL

Substance: LLDFNHSMVN [HGM26, human gut microbiota peptide]
- Proliferation (SI) of sorted CD4+ TILs ([2]; replicate 1): 1.889
- Proliferation (SI) of sorted CD4+ TILs ([2]; replicate 2): 1.31
- Proliferation (SI) of sorted CD4+ TILs ([2]; replicate 3): 1.491

Substance: LVDFFHSSAI [HGM32]
- recognition by TCC88, proliferation (in words) (TCC88 [4]): stimulatory

Substance: LWEFNNVSLA [HB4, UniProt bacteria database peptide]
- Proliferation (SI) of sorted CD4+ TILs ([2]; replicate 1): 1.585
- Proliferation (SI) of sorted CD4+ TILs ([2]; replicate 2): 1.003
- Proliferation (SI) of sorted CD4+ TILs ([2]; replicate 3): 1.832

Substance: LYEFNHSPGF [HGM7, human gut microbiota peptide]
- Proliferation (SI) of sorted CD4+ TILs ([2]; replicate 1): 2.804
- Proliferation (SI) of sorted CD4+ TILs ([2]; replicate 2): 1.758
- Proliferation (SI) of sorted CD4+ TILs ([2]; replicate 3): 3.368

Substance: QALVTLEENAVIG [Peptidome.Bac 14]
- CCL2/MCP-1 [1]: 351.37
- CCL3/MIP-1α [1]: 23.58
- CCL4/MIP-1β [1]: 78.06
- CCL11/Eotaxin [1]: 0
- CCL19/MIP-3β [1]: 2.57
- CCL20/MIP-3α [1]: 4.22
- CD40 Ligand [1]: 666.28
- CXCL1/GROα [1]: 68.11
- CXCL2/GROβ [1]: 60.34
- CXCL8/IL-8 [1]: 917.52
- CXCL10/IP-10 [1]: 111.72
- Flt-3 Ligand [1]: 48.51
- GM-CSF [1]: 38.36
- Granzyme B [1]: 0
- IFN-α [1]: 0
- IFN-γ [1]: 8.17
- IL-1rα [1]: 700.66
- IL-1α [1]: 0
- IL-1β [1]: 0
- IL-2 [1]: 2.34
- IL-3 [1]: 0.97
- IL-4 [1]: 0
- IL-5 [1]: 0
- IL-6 [1]: 110.14
- IL-7 [1]: 0.64
- IL-10 [1]: 11.57
- IL-12p70 [1]: 0
- IL-13 [1]: 23.19
- IL-15 [1]: 0.56
- IL-17A [1]: 0
- IL-17E/IL-25 [1]: 0
- IL-33 [1]: 4.57
- RANTES [1]: 0
- TNF-α [1]: 26.86

Substance: QLEFNHAIAS [HB2, UniProt bacteria database peptide]
- Proliferation (SI) of sorted CD4+ TILs ([2]; replicate 1): 1.556
- Proliferation (SI) of sorted CD4+ TILs ([2]; replicate 2): 1.363
- Proliferation (SI) of sorted CD4+ TILs ([2]; replicate 3): 1.455

Substance: VFAIDRAGLVGEDGPT [Peptidome.Bac 5]
- CCL2/MCP-1 [1]: 40.48
- CCL3/MIP-1α [1]: 7.07
- CCL4/MIP-1β [1]: 0
- CCL11/Eotaxin [1]: 0
- CCL19/MIP-3β [1]: 0
- CCL20/MIP-3α [1]: 0
- CD40 Ligand [1]: 0
- CXCL1/GROα [1]: 0
- CXCL2/GROβ [1]: 5.86
- CXCL8/IL-8 [1]: 0
- CXCL10/IP-10 [1]: 62.72
- Flt-3 Ligand [1]: 1.13
- GM-CSF [1]: 16.51
- Granzyme B [1]: 0
- IFN-α [1]: 0
- IFN-γ [1]: 0
- IL-1rα [1]: 212.62
- IL-1α [1]: 0
- IL-1β [1]: 0
- IL-2 [1]: 0
- IL-3 [1]: 0
- IL-4 [1]: 0
- IL-5 [1]: 0
- IL-6 [1]: 8.61
- IL-7 [1]: 0.34
- IL-10 [1]: 0
- IL-12p70 [1]: 0
- IL-13 [1]: 16.57
- IL-15 [1]: 0
- IL-17A [1]: 0
- IL-17E/IL-25 [1]: 0
- IL-33 [1]: 0
- RANTES [1]: 0
- TNF-α [1]: 24.29
